Values of other authors as cited in patent US20060222709A1 (AGI Therapeutics Research Ltd., priority 2005, published 2006).
Blank lines part the entries; values can stand above or below the molecule they belong to.

Legend:
[1] = test system: patients with chronic constipation; conditions: two trials
[2] = test system: women patients with IBS-C; conditions: 6 mg twice daily

Structure (SMILES): OC[C@H]1O[C@@H](O[C@@H]2[C@@H](CO)OC(O)(CO)[C@H]2O)[C@H](O)[C@@H](O)[C@H]1O (mixture of isomers) [lactulose]
stool frequency and consistency versus placebo [1]: more effective than placebo

prevalence of diarrhea (treated diabetes patients (Bytzer 2001)): 20%
Structure (SMILES): CN(C)C(=N)N=C(N)N [metformin, dimethylbiguanide]
acute, reversible adverse effects, mainly of gastrointestinal tract origin, patients affected (human, in vivo): up to 20%

Structure (SMILES): CCCCCNC(=N)N/N=C/c1c[nH]c2ccc(OC)cc12.O=C(O)/C=C\C(=O)O [tegaserod, 3-(5-methoxy-1H-indol-3-ylmethylene)-N-pentylcarbazimidamide hydrogen maleate]
global and individual symptoms [2]: effectively improves global and individual symptoms
